From US20080027042A1, “Novel Aminopyridine Derivatives Having Aurora a Selective Inhibitory Action” (priority 2004, published 2008)
Where a name gives a salt, the structure may show the parent alone.

What was measured:
Aurora A = biological target: T1, Aurora A (Homo sapiens, UniProt O14965); assay: Aurora A inhibitory action (33P-ATP kinase assay, Kemptide substrate); assay type: biochemical; settings: 20 μM ATP, 30° C., 20 minutes
T1 construct: histidine tag (N); made in house; host or cells: Escherichia coli BL21-CodonPlus(DE3)-RIL
T1 sequence (O14965 1-403): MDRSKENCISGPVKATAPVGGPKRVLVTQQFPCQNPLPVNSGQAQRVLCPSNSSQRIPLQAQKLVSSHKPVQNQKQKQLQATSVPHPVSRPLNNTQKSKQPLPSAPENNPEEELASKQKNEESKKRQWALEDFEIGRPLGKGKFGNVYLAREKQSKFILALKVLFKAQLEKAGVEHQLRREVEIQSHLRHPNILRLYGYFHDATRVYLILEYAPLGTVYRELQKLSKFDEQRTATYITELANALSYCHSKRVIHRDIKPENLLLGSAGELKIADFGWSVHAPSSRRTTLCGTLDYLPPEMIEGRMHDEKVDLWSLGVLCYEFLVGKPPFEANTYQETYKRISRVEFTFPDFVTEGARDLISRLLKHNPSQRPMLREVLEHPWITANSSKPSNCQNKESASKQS
Source text: Aurora A Inhibitory Action
(1) Purification of Aurora A
(§1) cDNA of Aurora A having histidine tag fused at the amino terminal was integrated into an expression vector, which was then highly expressed in Escherichia coli BL2 1-CodonPlus(DE3)-RIL cells. The Escherichia coli cells were recovered and solubilized, and then the histidine-tagged Aurora A protein was adsorbed onto a nickel chelate column and eluted from the column with imidazole. The active fraction was desalted with a desalting column to give a pure enzyme.
(2) Measurement of Activity of Aurora A
For measurement of the activity of Aurora A, the substrate used was Kemptide (Lys-Arg-Arg-Ala-Ser-Lys-Gly) (SEQ.ID.NO.: 1), a synthetic peptide purchased from Sigma-Aldrich, Inc. [Certificate of analysis (Upstate, Inc.)].
Reaction was conducted by a partial modification of a method by Upstate, Inc. [Kinase Profiler™ Assay Protocols]. The amount of the reaction liquid was 21.1 μL, and the composition of the reaction buffer (R2 buffer) was 50 mM Tris-hydrochloride buffer (pH 7.4)/15 mM magnesium acetate/0.2 mM ethylenediamine-N,N,N′,N′-tetraacetate (EDTA). To this, purified Aurora A, 100 μM of a substrate peptide, 20 μM of unlabeled adenosine triphosphate (ATP) and 0.5 μCi of [γ-^33P] labeled ATP (2,500 Ci/mmole or more) were added, and the mixture was reacted at 30° C. for 20 minutes. Then, 10 μL of 350 mM phosphate buffer was added to the reaction system to stop the reaction. The substrate peptide was adsorbed on a P81 paper filter 96-well plate and then washed with 130 mM phosphate buffer for several times. The radiation activity of the peptide was measured with a liquid scintillation counter. The [γ-^33P] labeled ATP was purchased from Amersham Biosciences Co., Ltd.
(§2) The compound to be tested was added to the reaction system such that a dilution series of the compound in dimethylsulfoxide was first prepared, and 1.1 μL of this solution was added. A control was provided by adding 1.1 μL of DMSO to the reaction system.

Aurora B = biological target: T2, Aurora B (Homo sapiens, UniProt Q96GD4); assay: Aurora B inhibitory action (33P-ATP kinase assay, Kemptide substrate); assay type: biochemical; settings: 100 μM ATP, 30° C., 20 minutes
T2 construct: histidine tag (N); made in house; host or cells: Escherichia coli BL21-CodonPlus(DE3)-RIL
Source text: Aurora B Inhibitory Action
(1) Purification of Aurora B
as §1, with “of Aurora B having histidine” for “of Aurora A having histidine”, “Escherichia coli BL21-CodonPlus(DE3)-RIL cells. The” for “Escherichia coli BL2 1-CodonPlus(DE3)-RIL cells. The”
(2) Measurement of Activity of Aurora B
For measurement of the activity of Aurora B, the substrate used was Kemptide (Lys-Arg-Arg-Ala-Ser-Lys-Gly) (SEQ.ED.NO.: 1), a synthetic peptide purchased from Sigma-Aldrich, Inc. [Certificate of analysis (Upstate, Inc.)].
Reaction was conducted by a partial modification of the method of activity measurement for Aurora A. The amount of the reaction liquid was 21.1 μL, and the composition of the reaction buffer (R2 buffer) was 50 mM Tris-hydrochloride buffer (pH 7.4)/15 mM magnesium acetate/0.2 mM ethylenediamine-N,N,N′,N′-tetraacetate (EDTA). To this, purified Aurora B, 100 μM of a substrate peptide, 100 μM of unlabeled adenosine triphosphate (ATP) and 1 μCi of [γ-^33P] labeled ATP (2,500 Ci/mmole or more) were added, and the mixture was reacted at 30° C. for 20 minutes. Then, 10 μL of 350 mM phosphate buffer was added to the reaction system to stop the reaction. The substrate peptide was adsorbed on a P81 paper filter 96-well plate and then washed with 130 mM phosphate buffer for several times. The radiation activity of the peptide was measured with a liquid scintillation counter. The [γ-^33P] labeled ATP was purchased from Amersham Biosciences Co., Ltd.
as §2

T2 sequence (Q96GD4 whole entry): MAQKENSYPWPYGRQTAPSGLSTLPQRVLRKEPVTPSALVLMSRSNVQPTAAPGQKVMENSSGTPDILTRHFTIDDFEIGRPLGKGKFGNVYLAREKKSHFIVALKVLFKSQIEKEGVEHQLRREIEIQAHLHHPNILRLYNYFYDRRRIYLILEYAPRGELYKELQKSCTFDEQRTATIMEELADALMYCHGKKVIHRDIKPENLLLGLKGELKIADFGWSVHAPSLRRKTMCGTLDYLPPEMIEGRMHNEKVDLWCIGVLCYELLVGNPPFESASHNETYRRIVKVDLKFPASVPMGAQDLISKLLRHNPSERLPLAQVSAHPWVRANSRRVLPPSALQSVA

Row | SMILES | IC50 (Aurora A) | IC50 (Aurora B)
1 | O=C(c1cc(CN2CCN(C(=O)c3cccc(Cl)c3F)CC2)nc(Nc2nccs2)c1)N1CCCC1 [Example 84, 6-((4-(3-chloro-2-fluorobenzoyl)piperazin-1-yl)methyl)-4-(pyrrolidin 1-ylcarbonyl)-N-thiazol-2-ylpyridin-2-amine trifluoroacetate] | 0.72 nM | 400 nM
2 | CNC(=O)c1cc(CN2CCN(C(=O)c3cccc(Cl)c3F)CC2)nc(Nc2nccs2)c1 [Example 85, 2-((4-(3-chloro-2-fluorobenzoyl)piperazin-1-yl)methyl)-N-methyl-6-(thiazol-2-ylamino)isonicotinamide trifluoroacetate] | 1 nM | 610 nM
3 | NC(=O)c1cc(CN2CCN(C(=O)c3cccc(Cl)c3F)CC2)nc(Nc2nccs2)c1 [Example 87, 2-((4-(3-chloro-2-fluorobenzoyl)piperazin-1-yl)methyl)-6-(thiazol-2-ylamino)isonicotinamide trifluoroacetate] | 1.2 nM | 1400 nM
4 | O=C(NCCO)c1cc(CN2CCN(C(=O)c3cccc(Cl)c3F)CC2)nc(Nc2nccs2)c1 [Example 88, 2-((4-(3-chloro-2-fluorobenzoyl)piperazin-1-yl)methyl)-N-(2-hydroxyethyl)-6-(thiazol-2-ylamino)isonicotinamide trifluoroacetate] | 0.72 nM | 1000 nM
5 | O=C(c1cccc(Cl)c1F)N1CCN(Cc2cc(Cn3ccnn3)cc(Nc3nccs3)n2)CC1 [Example 90, 6-((4-(3-chloro-2-fluorobenzoyl)piperazin-1-yl)methyl)-N-thiazol-2-yl-4-(1H-1,2,3-triazol-1-ylmethyl)pyridin-2-amine trifluoroacetate] | 1.5 nM | 860 nM
6 | O=C(c1cccc(Cl)c1F)N1CCN(Cc2cc(Cn3nccn3)cc(Nc3nccs3)n2)CC1 [Example 91, 6-((4-(3-chloro-2-fluorobenzoyl)piperazin-1-yl)methyl)-N-thiazol-2-yl-4-(2H-1,2,3-triazol-2-ylmethyl)pyridin-2-amine trifluoroacetate] | 1.4 nM | 1200 nM
7 | O=C(c1cccc(Cl)c1F)N1CCN(Cc2cc(Cn3cncn3)cc(Nc3nccs3)n2)CC1 [Example 92, 6-((4-(3-chloro-2-fluorobenzoyl)piperazin-1-yl)methyl)-N-thiazol-2-yl-4-(1H-1,2,4-triazol-1-ylmethyl)pyridin-2-amine trifluoroacetate] | 0.93 nM | 830 nM
8 | CS(=O)(=O)Cc1cc(CN2CCN(C(=O)c3cccc(Cl)c3F)CC2)nc(Nc2nccs2)c1 [Example 93, 6-((4-(3-chloro-2-fluorobenzoyl)piperazin-1-yl)methyl)-4-((methanesulfonyl)methyl)-N-thiazol-2-ylpyridin-2-amine] | 0.36 nM | 250 nM
9 | CN(C)Cc1cc(CN2CCN(C(=O)c3cccc(Cl)c3F)CC2)nc(Nc2nccs2)c1 [Example 94, 6-((4-(3-chloro-2-fluorobenzoyl)piperazin-1-yl)methyl)-4-((dimethylamino)methyl)-N-thiazol-2-ylpyridin-2-amine] | 1.1 nM | 1100 nM
10 | O=C(c1cccc(Cl)c1F)N1CCN(Cc2cc(N3CCCC3=O)cc(Nc3nccs3)n2)CC1 [Example 96, 1-(2-((4-(3-chloro-2-fluorobenzoyl)piperazin-1-yl)methyl)-6-(thiazol-2-ylamino)pyridin-4-yl)pyrrolidin-2-one] | 0.57 nM | 690 nM
11 | O=C(c1cccc(Cl)c1F)N1CCN(Cc2cc(N3CCOC3=O)cc(Nc3nccs3)n2)CC1 [Example 97, 3-(2-((4-(3-chloro-2-fluorobenzoyl)piperazin-1-yl)methyl)-6-(thiazol-2-ylamino)pyridin-4-yl)-1,3-oxazolidin-2-one] | 0.62 nM | 830 nM
12 | CN1CCN(c2cc(CN3CCN(C(=O)c4cccc(Cl)c4F)CC3)nc(Nc3nccs3)c2)C1=O [Example 98, 3-(2-((4-(3-chloro-2-fluorobenzoyl)piperazin-1-yl)methyl)-6-(thiazol-2-ylamino)pyridin-4-yl)-3-methylimidazolidin-2-one] | 0.36 nM | 230 nM
13 | O=C(c1cccc(F)c1F)N1CCN(Cc2cc(NCC(F)F)cc(Nc3nccs3)n2)CC1 [Example 100, 6-((4-(2,3-difluorobenzoyl)piperazin-1-yl)methyl)-N4-(2,2-difluoroethyl)-N^2-thiazol-2-ylpyridine-2,4-diamine] | 2.6 nM | 1300 nM
14 | O=C(c1cccc(F)c1F)N1CCN(Cc2cc(N3CCOCC3)cc(Nc3nccs3)n2)CC1 [Example 103, 6-((4-(2,3-difluorobenzoyl)piperazin-1-yl)methyl)-4-morpholin-4-yl-N-thiazol-2-ylpyridin-2-amine] | 0.76 nM | 250 nM
15 | O=C(c1cccc(Cl)c1F)N1CCN(Cc2cc(-c3nn[nH]n3)cc(Nc3nccs3)n2)CC1 [Example 105, 6-((4-(3-chloro-2-fluorobenzoyl)piperazin-1-yl)methyl)-4-(2H-tetrazol-5-yl)-N-thiazol-2-ylpyridin-2-amine] | 1.4 nM | 1000 nM
16 | Cc1nc(-c2cc(CN3CCN(C(=O)c4cccc(Cl)c4F)CC3)nc(Nc3nccs3)c2)no1 [Example 109, 6-((4-(3-chloro-2-fluorobenzoyl)piperazin-1-yl)methyl)-4-(5-methyl-1,2,4-oxadiazol-3-yl)-N-thiazol-2-ylpyridin-2-amine] | 0.42 nM | 520 nM
17 | Cc1noc(-c2cc(CN3CCN(C(=O)c4cccc(Cl)c4F)CC3)nc(Nc3nccs3)c2)n1 [Example 110, 6-((4-(3-chloro-2-fluorobenzoyl)piperazin-1-yl)methyl)-4-(3-methyl-1,2,4-oxadiazol-5-yl)-N-thiazol-2-ylpyridin-2-amine] | 0.59 nM | 750 nM
18 | O=C(c1cccc(Cl)c1F)N1CCN(Cc2cccc(Nc3ncc(F)s3)n2)CC1 [Example 112, 6-((4-(3-chloro-2-fluorobenzoyl)piperazin-1-yl)methyl)-N-(5-fluorothiazol-2-yl)pyridin-2-amine] | 0.81 nM | 230 nM
